Reference: US10792483B2, “Tumor vaccination” (XAX KFT., priority 2012, dated 2020)
Entries after “also recorded” stand apart in the source; their conditions may differ.

Assays:
[1] = tested on: melanoma with lung metastases; assay: Case report, dog treated with oncothermia and low dose Carboplatine (Example 11); format: in vivo, Cocker spaniel; conditions: low dose Carboplatine 2 times (100 mg/m^2) + oncothermia 10 times in 2 weeks on the chest
Procedure: Case No.:11461, Cocker spaniel, 8 years, castrated male,
Diagnosis: melanoma with lung metastases. The primary tumor was situated on the right hind leg and was removed surgically. 5 months later metastases in the lung occurred, at that time we started the treatment.
Oncothermia (10 times in a 2 weeks period)
Low dose Carboplatine 2 times, (100 mg/m^2)
The site of the OTM treatment was on the chest, exactly at the line of the heart.

[2] = tested on: non small cells lung cancer; assay: Case report, patient treated with radiotherapy, oncothermia and GM-CSF (Example 13); format: in vivo, human; conditions: for Response of far-distant metastases (abscopal effect, PET scan): GM-CSF (Leukine) subcutaneously with oncothermia (and radiotherapy) of the primary tumor only; for Response of the primary (treated) tumor: GM-CSF (Leukine) with oncothermia (and radiotherapy)
Description: A patient was diagnosed with unclassifiable non small cells lung cancer. The classification of the tumor at first diagnosis was cT2N2M0, stage IIIB. Despite of the advanced case the patient refused any treatment. Five months later, they visited outpatient department of complementary and alternative medicine with complaints of hemoptysis and dyspnea on exertion gradually worsened 4 weeks before. They were referred to medical oncology department and admitted for re-evaluation.
The patient had no co-morbidities and no medical history. However, they still refused chemotherapy and together with their family members requested other possible treatment options.
In these circumstances we made radiotherapy in combination with oncothermia and GM-CSF expecting to induce abscopal effect. Local field radiation therapy to lung mass was delivered at a dose of […] in 28 daily fractions for 5-6 treatments in a week. It was followed by oncothermia after radiation 3 times a week. After 2 weeks of oncothermia treatment, GM-CSF (250 microgram, Leukine®, USA) was administered subcutaneously once a day for 10 days. GM-CSF in dose 125 μg/m^2 was given subcutaneously for 14 days after one week of radiotherapy. The result supported that using GM-CSF was feasible and its effect enhanced the immune therapy.

Melanoma = conditions: phase III, 185 patients; cited from earlier work

Molecule: N.N.O=C([O-])C1(C(=O)[O-])CCC1.[Pt+2] [Carboplatine]
- Tumor regression (CT image series) [1]: Significant tumor regression was observed not only at the site of the treatment, but outside of the directly OTM treated area

Molecule: Leukine®: sargramostim; recombinant granulocyte macrophage colony-stimulating factor
- Response of far-distant metastases (abscopal effect, PET scan) [2]: beneficial effect also on the far-distances metastases, which disappear; also recorded: the metastases disappeared
- Response of far-distant metastases (abscopal effect, PET scan) ([2]; listed as GM-CSF): nearly complete remission in multiple metastatic lymph nodes; also recorded: successful abscopal effect
- Response of the primary (treated) tumor [2]: started to shrink
- Response of the primary (treated) tumor ([2]; listed as GM-CSF): shrinking
- Adverse effects ([2]; radiotherapy + oncothermia + GM-CSF, end of treatment period): no severe adverse effects except grade 1 fatigue

Molecule: gp100:209-217(210M): listed under vaccines with peptides (IMDQVPFSV; UniProt P40967 209-217, looked up, variant T210M)
- RR and PES (Melanoma): Significant improve-
